Measurements as given in patent publication US11786534B2 (TAIHO PHARMACEUTICAL CO., LTD., priority 2019, dated 2023).

How the values were obtained:
Format in all cases: biochemical
human EGFR (WT) = target: T1, human EGFR (WT) (Homo sapiens, UniProt P00533); assay: Inhibitory activity against EGFR (WT) kinase
T1 construct: purchased Carna Biosciences Inc., Japan
Procedure: The compounds of the present invention were measured for their inhibitory activity nainst EGFR (WT) kinase activity.
The materials, measurement procedures and data analysis method used in this test. are substantially the same as those shown in the section “Measurement of inhibitory activity against EGFR (d746-750/T790M/C797S) kinase.” However, among the materials, the kinase protein used was a purified recombinant human EGFR (WT) purchased from Carna Biosciences Inc., Japan. In the measurement procedures, the final concentration of ATP was set to 1.5 μM. Finally, data analysis was conducted to determine the IC50 value (nM) of each compound against EGFR (WT).
In accordance with the same procedures as shown in 5) in Test Example 1, the compounds of the present invention were measured for their inhibitory activity against. EGFR (WT) kinase activity.

[1] = target: T2, human EGFR (d746-750/C797S) (Homo sapiens, UniProt P00533, C797S/DEL746-750); assay: Inhibitory activity against EGFR (d746-750/C797S) kinase
T2 construct: purchased SignalChem
T2 sequence (P00533 with tags, fused parts or gaps DEL746-750/C797S): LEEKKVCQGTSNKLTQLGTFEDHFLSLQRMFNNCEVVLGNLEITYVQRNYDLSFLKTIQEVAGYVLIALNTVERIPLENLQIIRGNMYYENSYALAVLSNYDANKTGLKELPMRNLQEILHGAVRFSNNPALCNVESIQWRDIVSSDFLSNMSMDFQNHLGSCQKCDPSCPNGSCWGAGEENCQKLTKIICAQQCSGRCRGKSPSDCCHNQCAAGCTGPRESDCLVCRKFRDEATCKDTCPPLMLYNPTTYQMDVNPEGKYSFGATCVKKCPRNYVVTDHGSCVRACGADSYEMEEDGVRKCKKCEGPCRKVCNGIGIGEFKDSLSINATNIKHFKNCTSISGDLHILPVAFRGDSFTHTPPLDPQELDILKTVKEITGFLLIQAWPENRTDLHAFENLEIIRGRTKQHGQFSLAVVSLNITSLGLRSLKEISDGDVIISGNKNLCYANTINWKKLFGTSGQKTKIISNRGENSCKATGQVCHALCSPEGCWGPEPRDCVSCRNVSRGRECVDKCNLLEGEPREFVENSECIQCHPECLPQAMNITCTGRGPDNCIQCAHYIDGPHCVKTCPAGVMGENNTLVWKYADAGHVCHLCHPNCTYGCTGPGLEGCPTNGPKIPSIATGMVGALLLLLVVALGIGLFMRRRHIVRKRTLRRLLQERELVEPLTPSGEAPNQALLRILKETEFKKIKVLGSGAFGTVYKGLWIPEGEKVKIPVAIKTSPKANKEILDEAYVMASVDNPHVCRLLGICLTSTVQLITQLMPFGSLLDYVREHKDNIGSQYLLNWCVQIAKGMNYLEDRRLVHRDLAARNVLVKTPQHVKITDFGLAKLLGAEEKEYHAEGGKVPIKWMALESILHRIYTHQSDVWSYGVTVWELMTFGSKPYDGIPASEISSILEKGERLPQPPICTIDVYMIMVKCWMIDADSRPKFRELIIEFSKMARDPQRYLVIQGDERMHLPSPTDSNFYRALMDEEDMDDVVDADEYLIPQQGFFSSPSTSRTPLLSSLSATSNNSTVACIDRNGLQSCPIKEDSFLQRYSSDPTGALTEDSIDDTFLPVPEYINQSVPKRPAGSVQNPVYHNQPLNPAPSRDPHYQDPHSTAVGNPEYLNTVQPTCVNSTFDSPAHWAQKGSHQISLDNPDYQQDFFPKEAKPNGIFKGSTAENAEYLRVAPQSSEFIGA
Procedure: 3) Measurement of inhibitory activity against EGFR (d746-750/C797S) kinase
The compounds of the present invention were measured for their inhibitory activity against EGFR (d746-750/C797S) kinase activity.
The materials, measurement procedures and data analysis method used in this test are substantially the same as those shown in the section “Measurement of inhibitory activity aiainst EGFR (d746-750/T790M/C797S) kinase.” However, among the materials, the kinase protein used was a purified recombinant human EGFR (d746-750/C797S) protein purchased from SignalChem, while the kinase reaction buffer used was 13.5 mM Tris (pH 7.5) containing 2 mM dithiothreitol and 0.009% Tween-20. In the measurement procedures, the final concentration of ATP was set to 14 μM, the final concentration of maganesium chloride was set to 20 mM, the final concentration of manganese chloride was set to 12.5 mM, the incubation time for kinase reaction was set to 60 minutes, and the final concentration of EDTA used to stop the kinase reaction was set to 40 mM. Finally, data analysis was conducted to determine to IC50 value (nM) of each compound against EGFR (d746-750/C797S).
In accordance with the same procedures as shown in 3) in Test Example 1, the compounds of the present invention were measured for their inhibitory activity against EGFR (d746-750/C797S) kinase activity.

human EGFR (L858R/C797S) = target: T3, human EGFR (L858R/C797S) (Homo sapiens, UniProt P00533, C797S/L858R); assay: Inhibitory activity against EGFR (L858R/C797S) kinase; settings: Test Example 1, Table 5; ATP 4 μM, 90 minutes
T3 construct: purchased SignalChem
T3 sequence (P00533 25-1210 C797S/L858R): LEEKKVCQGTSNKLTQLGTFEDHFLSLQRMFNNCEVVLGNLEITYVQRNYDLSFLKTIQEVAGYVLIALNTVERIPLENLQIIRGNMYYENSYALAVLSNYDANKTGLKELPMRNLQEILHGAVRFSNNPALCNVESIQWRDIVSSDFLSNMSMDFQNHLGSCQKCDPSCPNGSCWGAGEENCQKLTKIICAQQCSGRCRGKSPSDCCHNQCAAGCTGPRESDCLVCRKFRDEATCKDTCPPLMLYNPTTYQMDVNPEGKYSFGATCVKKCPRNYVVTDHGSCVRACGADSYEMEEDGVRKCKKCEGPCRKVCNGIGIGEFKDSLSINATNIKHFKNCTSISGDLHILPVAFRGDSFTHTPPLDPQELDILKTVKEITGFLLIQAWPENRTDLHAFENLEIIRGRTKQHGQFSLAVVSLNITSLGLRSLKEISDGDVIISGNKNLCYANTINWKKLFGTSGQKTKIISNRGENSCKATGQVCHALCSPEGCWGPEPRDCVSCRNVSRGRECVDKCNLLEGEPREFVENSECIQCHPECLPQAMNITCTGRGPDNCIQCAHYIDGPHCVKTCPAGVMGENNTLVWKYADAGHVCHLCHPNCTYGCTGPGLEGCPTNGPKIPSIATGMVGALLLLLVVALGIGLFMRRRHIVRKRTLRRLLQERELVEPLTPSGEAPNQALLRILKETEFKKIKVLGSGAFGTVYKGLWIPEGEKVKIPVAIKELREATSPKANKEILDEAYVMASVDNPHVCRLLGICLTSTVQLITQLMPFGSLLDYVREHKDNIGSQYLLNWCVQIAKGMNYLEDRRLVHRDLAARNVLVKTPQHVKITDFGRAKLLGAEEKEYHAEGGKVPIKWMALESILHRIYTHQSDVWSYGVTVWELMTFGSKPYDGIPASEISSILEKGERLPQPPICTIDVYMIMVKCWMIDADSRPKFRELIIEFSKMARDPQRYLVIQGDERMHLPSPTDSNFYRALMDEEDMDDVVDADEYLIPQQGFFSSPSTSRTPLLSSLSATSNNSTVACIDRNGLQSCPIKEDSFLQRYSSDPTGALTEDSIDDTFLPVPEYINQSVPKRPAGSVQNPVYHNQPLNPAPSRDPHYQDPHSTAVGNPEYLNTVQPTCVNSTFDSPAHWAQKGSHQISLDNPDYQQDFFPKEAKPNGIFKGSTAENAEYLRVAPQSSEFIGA
Procedure: 4) Measurement of inhibitory activity against EGFR (L858R/C797S) kinase
The compounds of the present invention were measured for their inhibitory activity aeainst EGFR (L858R/C797S) kinase activity.
The materials, measurement procedures and data analysis method used in this test are stibstantially the same as those shown in the section “Measurement of inhibitory activity against EGFR (d746-750/C797S) kinase.” However, among the materials, the kinase protein used was a purified recombinant human EGFR (C797S/L858R) protein purchased from SignalChem. In the measurement procedures, the final concentration of ATP was set to 4 μM, and the incubation time for kinase reaction was set to 90 minutes. Finally, data analysis was conducted determine the IC50 value (nM) of each compound against EGFR (L858R/C797S).
In accordance with the same procedures as shown in 4) in Test Example 1, the compounds of the present invention were measured for their inhibitor activity against. EGFR (L858R/C797S) kinase activity.

[2] = target: T4, human EGFR (d746-750/T790M/C797S) (Homo sapiens, UniProt P00533, C797S/DEL746-750/T790M); assay: Inhibitory activity against EGFR (d746-750/T790M/C797S) kinase
T4 construct: made in house; host or cells: Sf9 insect cells, baculovirus
T4 sequence (P00533 with tags, fused parts or gaps DEL746-750/T790M/C797S): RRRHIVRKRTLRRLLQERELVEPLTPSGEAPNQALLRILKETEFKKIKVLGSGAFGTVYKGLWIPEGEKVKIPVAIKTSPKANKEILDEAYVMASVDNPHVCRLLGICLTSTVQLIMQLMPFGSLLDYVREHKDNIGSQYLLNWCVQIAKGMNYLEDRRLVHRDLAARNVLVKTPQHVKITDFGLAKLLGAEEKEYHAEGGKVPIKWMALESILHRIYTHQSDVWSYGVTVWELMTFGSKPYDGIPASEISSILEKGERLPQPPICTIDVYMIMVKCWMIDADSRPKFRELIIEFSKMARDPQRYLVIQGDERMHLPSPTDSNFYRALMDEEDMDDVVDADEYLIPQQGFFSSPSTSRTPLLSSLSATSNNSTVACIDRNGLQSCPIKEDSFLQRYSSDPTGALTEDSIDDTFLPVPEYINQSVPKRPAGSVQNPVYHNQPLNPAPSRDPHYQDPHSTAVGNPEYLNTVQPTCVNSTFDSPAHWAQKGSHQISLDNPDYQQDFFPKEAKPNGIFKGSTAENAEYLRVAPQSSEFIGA
Procedure: 1) Measurement of inhibitory activity against EGFR (d746-750/T790M/C797S) kinase
The compounds of the above examples and comparative examples were measured for their inhibitory activity against EGFR (d746-750/T790M/C797S) kinase activity. Among the materials required for measurement of this inhibitory activity, the kinase protein (SEQ ID NO: 1) used was prepared as follows: the cytoplasmic domain of human EGFR (d746-750/T790M/C797S) fused at the ammo terminal end with a glutathione-S-transferase (GST) tag was expressed M insect cells (Sf9) by the baculovirus expression system and then purified an a glutathione sepharose column. For use as a substrate peptide, a peptide biotinylated at the N-terminal end (biotin -EEPLYWSFPAKKK) was synthesized by reference to Perkin Elmer LabChip® series reagent FL-Peptide 22.
Procedures for measurement of the inhibitory activity are as follows. First, the compounds of the present invention were each dissolved in dimethyl sulfoxide (DMSO), and their serial dilutions were then prepared with DMSO. Secondly, each compound serial dilution (final concentration of DMSO during kinase reaction: 2.5%) or DMSO (final concentration: 2.5%) was mixed with a solution containing the substrate peptide (final concentration: 250 nM), magnesium chloride (final concentration: 10 mM), manganese chloride (final concentration: 10 mM) and ATP (final concentration: 6 μM) in a kinase reaction buffer (Carna Biosciences Inc., Japan), and the EGFR (d746-750/T790M/C797S) protein was further added thereto, followed by incubation at 25° C. for 120 minutes to cause kinase reaction. To the reaction solution, EDTA was added to give a final concentration of 24 mM to thereby stop the reaction, followed by addition of a phospholylated tyrosine detection solution containing europium-labeled anti-phosphorylated tyrosine antibody PT66 (Perkin Elmer) and SureLight APC-SA (Perkin Elmer). The reaction solution was allowed to stand at room temperature for 2 hours or longer. As a background, DMSO was used instead of each compound solution in .DMSO, and EDIA was added prior to the addition of the EGFR EGFR (d746-750/T790M/C797S) protein, followed by incubation at 25° C. for 120 minutes. The same detection solution was also added to this reaction solution, which was then allowed to stand for 2 hours or longer. Finally, all the test samples were measured with a PHERAstar FS reader (BMG LABTECH) for their fluorescence intensity at two wavelengths of 620 nm and 665 nm upon irradiation with an excitation light of 337 nm wavelength, and the ratio of fluorescence intensities at these two wavelengths was obtained as data for each compound.
Moreover, as control compounds, the above Comparative Example A (Example 3 in WO2013/118817) and Comparative Example B (Example 35 in WO2013/118817) known to have EGFR inhibitory activity were used.
In accordance with the same procedures as shown in 1) in Test Example 1, the compounds of the above examples were measured for their inhibitory activity against EGFR (d746-750/T790M/C797S) kinase activity.

[3] = target: T5, human EGFR (L858R/T790M/C797S) (Homo sapiens, UniProt P00533, C797S/L858R/T790M); assay: Inhibitory activity against EGFR (L858R/T790M/C797S) kinase; settings: Test Example 3, Table 9; same procedures as 2) in Test Example 1
T5 construct: made in house; host or cells: Sf9 insect cells, baculovirus
T5 sequence (P00533 with tags, fused parts or gaps T790M/C797S/L858R): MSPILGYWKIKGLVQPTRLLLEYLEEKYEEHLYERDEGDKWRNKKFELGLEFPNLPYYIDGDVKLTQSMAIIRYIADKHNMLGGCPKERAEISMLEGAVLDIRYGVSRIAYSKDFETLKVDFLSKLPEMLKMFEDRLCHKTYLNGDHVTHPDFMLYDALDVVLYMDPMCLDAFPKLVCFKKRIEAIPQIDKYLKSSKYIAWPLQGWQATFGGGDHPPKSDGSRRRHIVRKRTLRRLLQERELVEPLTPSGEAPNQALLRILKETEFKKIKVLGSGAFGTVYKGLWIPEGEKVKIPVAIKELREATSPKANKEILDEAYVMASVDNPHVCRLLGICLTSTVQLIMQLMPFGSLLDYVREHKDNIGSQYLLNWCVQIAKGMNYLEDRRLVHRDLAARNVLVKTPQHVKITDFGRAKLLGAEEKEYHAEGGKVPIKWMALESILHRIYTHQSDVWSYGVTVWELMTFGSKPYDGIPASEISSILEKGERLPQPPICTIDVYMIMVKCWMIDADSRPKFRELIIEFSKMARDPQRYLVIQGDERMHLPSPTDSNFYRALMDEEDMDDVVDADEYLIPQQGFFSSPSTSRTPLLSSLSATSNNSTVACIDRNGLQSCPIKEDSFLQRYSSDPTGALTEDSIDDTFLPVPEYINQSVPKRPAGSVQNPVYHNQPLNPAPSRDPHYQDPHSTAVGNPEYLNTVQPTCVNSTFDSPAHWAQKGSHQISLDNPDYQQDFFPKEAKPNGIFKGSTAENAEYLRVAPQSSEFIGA
Procedure: 2) Measurement of inhibitory activity against EGFR (L858R/T790M/C797S) kinase
The compounds of the presein invention were measured for their inhibitory activity against EGFR (L858R/T790M/C797S) kinase activity.
The materials, measurement procedures and data analysis method used in this test are substantially the same as those shown in the section “Measurement of inhibitory activity against EGFR (d746-750/T790M/C797S) kinase.” However, among the materials, the kinase protein (SEQ ID NO: 2) used was prepared as follows: the cytoplasmic domain of human EGFR (L858R/T790M/C797S) fused at the amino terminal end with a GST tag was expressed in insect cells (Sf9) by the baculovirus expression system and then purified on a glutathione sepharose column. In the measurement procedures, the final concentration of ATP was set to 0.5 μM. Finally, data analysis was conducted to determine the IC50 value (nM) of each compound against EGFR (L858R/T790M/C797S).
In accordance with the same procedures as shown in 2) in Test Example 1, the compounds of the present invention were measured for their inhibitory activity against EGFR (L858R/T790M/C797S) kinase activity.

[4] = Test Example 1, Table 6, ATP 1.5 μM
[5] = Test Example 1, Table 4, ATP 14 μM, 60 minutes
[6] = Test Example 1, Table 2, ATP 6 μM, 25° C., 120 minutes

T1 sequence (P00533 25-1210): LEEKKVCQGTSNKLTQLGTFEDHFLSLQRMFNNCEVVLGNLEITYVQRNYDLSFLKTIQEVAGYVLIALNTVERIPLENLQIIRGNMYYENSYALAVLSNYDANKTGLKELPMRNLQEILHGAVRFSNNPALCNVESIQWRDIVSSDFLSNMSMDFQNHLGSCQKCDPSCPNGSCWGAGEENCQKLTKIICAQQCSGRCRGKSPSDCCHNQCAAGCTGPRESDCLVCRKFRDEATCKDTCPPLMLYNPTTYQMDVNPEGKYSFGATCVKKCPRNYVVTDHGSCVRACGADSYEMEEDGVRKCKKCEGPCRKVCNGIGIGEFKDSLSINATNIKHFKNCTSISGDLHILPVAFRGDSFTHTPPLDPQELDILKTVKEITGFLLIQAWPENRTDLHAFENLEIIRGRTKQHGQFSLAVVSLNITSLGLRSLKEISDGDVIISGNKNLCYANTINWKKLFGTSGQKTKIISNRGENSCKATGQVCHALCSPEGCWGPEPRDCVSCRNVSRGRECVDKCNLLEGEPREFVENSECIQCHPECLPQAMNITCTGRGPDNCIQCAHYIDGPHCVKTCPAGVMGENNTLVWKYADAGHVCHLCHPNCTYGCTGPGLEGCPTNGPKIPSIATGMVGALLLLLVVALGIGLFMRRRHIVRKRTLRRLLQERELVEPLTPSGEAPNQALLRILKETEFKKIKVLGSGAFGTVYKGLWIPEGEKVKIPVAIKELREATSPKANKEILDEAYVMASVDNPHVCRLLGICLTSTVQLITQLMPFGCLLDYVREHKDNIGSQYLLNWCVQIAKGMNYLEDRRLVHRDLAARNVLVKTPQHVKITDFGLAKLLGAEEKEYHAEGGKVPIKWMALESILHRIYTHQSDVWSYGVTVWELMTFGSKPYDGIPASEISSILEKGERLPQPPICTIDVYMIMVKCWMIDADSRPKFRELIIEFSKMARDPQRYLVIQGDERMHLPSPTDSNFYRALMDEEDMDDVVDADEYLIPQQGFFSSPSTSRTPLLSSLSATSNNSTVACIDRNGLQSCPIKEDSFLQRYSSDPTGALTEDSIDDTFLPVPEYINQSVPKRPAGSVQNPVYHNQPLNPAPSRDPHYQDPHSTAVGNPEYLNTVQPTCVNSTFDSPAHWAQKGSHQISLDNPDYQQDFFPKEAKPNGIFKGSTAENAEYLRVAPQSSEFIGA

Row | SMILES | IC50 (human EGFR (WT); [4]) [nM] | IC50 [1, 5] [nM] | IC50 (human EGFR (L858R/C797S)) [nM] | IC50 [2, 6] [nM] | IC50 [3] [nM] | IC50 (human EGFR (WT); Test Example 3, Table 12; same procedures as 5) in Test Example 1) [nM] | IC50 ([1]; Test Example 3, Table 10; same procedures as 3) in Test Example 1) [nM] | IC50 ([2]; Test Example 3, Table 8; same procedures as 1) in Test Example 1) [nM]
1 | C#Cc1c(-c2cnc3ccccc3c2)c2c(N)ncnc2n1C12CCC(NCc3cccnc3)(CC1)CC2 [Example 8, 6-Ethynyl-7-(4-((pyridin-3-ylmethyl)amino)bicyclo[2.2.2]octan-1-yl)-5-(quinolin-3-yl) -7H-pyrrolo[2,3-d]pyrimidine-4-amine] | 3.2 | 0.73 | 1.4 | < 0.3 | – | – | – | –
2 | C#Cc1c(-c2cnc3ccccc3c2)c2c(N)ncnc2n1C12CCC(NC(=O)CN(C)C)(CC1)CC2 [Example 55] | 1.2 | 0.86 | 1.2 | < 0.3 | – | – | – | –
3 | C#Cc1c(-c2cnc3ccccc3c2)c2c(N)ncnc2n1C12CCC(NC(=O)c3cnc(N(C)C)cn3)(CC1)C2 [Example 32, N-(4-(4-Amino-6-ethynyl-5-(quinolin-3-yl)-7H-pyrrolo[2,3-d]pyrimidin-7-yl)bicyclo-[2.2.1]heptan-1-yl)-5-(dimethylamino)pyrazine-2-carboxamide] | 1 | 0.59 | 0.78 | < 0.3 | – | – | – | –
4 | C#Cc1c(-c2cnc3ccccc3c2)c2c(N)ncnc2n1C12CCC(NC(=S)N3CC4(CN(C)C4)C3)(CC1)CC2 [Example 56] | 0.94 | 0.84 | 0.9 | < 0.3 | – | – | – | –
5 | C#Cc1c(-c2cnc3ccccc3c2)c2c(N)ncnc2n1C12CCC(N(C)C(=O)c3cnc(C)cn3)(CC1)C2 [Example 57] | 5.9 | 2.5 | 4.4 | < 0.3 | – | – | – | –
6 | CC#Cc1c(-c2cnc3ccccc3c2)c2c(N)ncnc2n1C12CCC(NC(=O)c3ccnn3C)(CC1)C2 [Example 33, N-(4-(4-Amino-6-(propyn-1-yl)-5-(quinolin-3-yl)-7H-pyrrolo[2,3-d]pyrimidin-7-yl) -bicyclo[2.2.1]heptan-1-yl)-1-methyl-1H-pyrazole-5-carboxamide] | 1.9 | 1.9 | 2.3 | < 0.3 | – | – | – | –

Further lines, results first:

Row | IC50 (human EGFR (WT); [4]) [nM] | IC50 [1, 5] [nM] | IC50 (human EGFR (L858R/C797S)) [nM] | IC50 [2, 6] [nM] | IC50 [3] [nM] | IC50 (human EGFR (WT); Test Example 3, Table 12; same procedures as 5) in Test Example 1) [nM] | IC50 ([1]; Test Example 3, Table 10; same procedures as 3) in Test Example 1) [nM] | IC50 ([2]; Test Example 3, Table 8; same procedures as 1) in Test Example 1) [nM] | SMILES
7 | 1.7 | 0.78 | 0.98 | < 0.3 | – | – | – | – | C#Cc1c(-c2cnc3ccccc3c2)c2c(N)ncnc2n1C12CCC(NC(=O)n3cccn3)(CC1)C2 [Example 21, N-(4-(4-Amino-6-ethynyl-5-(quinolin-3-yl)-7H-pyrrolo[2,3-d]pyrimidin-7-yl)bicyclo-[2.2.1]heptan-1-yl)-1H-pyrazole-1-carboxamide]
8 | – | – | – | – | < 0.3 | 1.6 | 0.34 | < 0.3 | C#Cc1c(-c2cnc3ccccc3c2)c2c(N)ncnc2n1C12CCC(NC(=O)[C@@H]3CNCCO3)(CC1)C2 [Example 62, (S)-N-(4-(4-Amino-6-ethynyl-5-(quinolin-3-yl)-7H-pyrrolo[2,3-d]pyrimidin-7-yl) -bicyclo[2.2.1]heptan-1-yl)morpholine-2-carboxamide]
9 | 2.5 | 2.3 | 2.9 | 0.8 | – | – | – | – | C#Cc1c(-c2cnc3ccccc3c2)c2c(N)ncnc2n1C12CCC(O)(CC1)CC2 [Example 7, 4-(4-Amino-6-ethynyl-5-(quinoiln-3-yl)-7H-pyrrolo[2,3-d]pyrimidin-7-yl)bicyclo-[2.2.2]octan-1-ol]
10 | 6.3 | 1.5 | 2.8 | < 0.3 | – | – | – | – | C#Cc1c(-c2cnc3ccccc3c2)c2c(N)ncnc2n1C12CCC(CNCCF)(CC1)C2 [Example 54, 6-Ethynyl-7-(4-(((2-fluoroethyl)amino)methyl)bicyclo[2.2.1]heptan-1-yl)-5-(quinolin-3-yl)-7H-pyrrolo[2,3-d]pyrimidine-4-amine]
11 | 5 | 2.6 | 4 | < 0.3 | – | – | – | – | C#Cc1c(-c2cnc3ccccc3c2)c2c(N)ncnc2n1C12CCC(CN(C)C)(CC1)C2 [Example 40, 7-(4-((Dimethylamino)methyl)bicyclo[2.2.1]heptan-1-yl)-6-ethynyl-5-(quinolin-3-yl) -7H-pyrrolo[2,3-d]pyrimidine-4-amine]
12 | 4 | 1.2 | 2.8 | 0.32 | – | – | – | – | C#Cc1c(-c2cnc3ccccc3c2)c2c(N)ncnc2n1C12CCC(N3CCN(C)C(=O)C3)(CC1)C2 [Example 5, 4-(4-(4-Amino-6-ethynyl-5-(quinolin-3-yl)-7H-pyrrolo[2,3-d]pyrimidin-7-yl)bicyclo-[2.2.1]heptan-1-yl)-1-methylpiperazin-2-one]
